Read-outs that look alike come from different tables or passages of the source. One block for each compound: values may come before it.
Molecular target: T1, chimeric human H3 receptor (Homo sapiens, UniProt Q9Y5N1, E19D)
T1 construct: made in house; host or cells: Sf9 insect cells (baculovirus infection); P2 membrane preparation
Experiment: Chimeric human H3 receptor GTP binding assay (agonist-stimulated GTP-gamma35S binding, Example 7)
Assay type: biochemical
Method in brief: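 IC50 values come from non-linear regression of dose-response curves of filter-bound GTP-gamma^35S, counted by scintillation. Membranes were from infected Sf9 cells carrying receptor plus G-protein subunits, 35 μg/tube, with 10 μM GDP present.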

[1] = assay of Example 7; "*" in Ki of Table II; read-out: Ki
[2] = assay of Example 7; symbol * in column headed Ki of Table II; read-out: Ki
[3] = Table II; assay of Example 7; "*" in Ki; read-out: Ki

T1 sequence (Q9Y5N1 with tags, fused parts or gaps E19D): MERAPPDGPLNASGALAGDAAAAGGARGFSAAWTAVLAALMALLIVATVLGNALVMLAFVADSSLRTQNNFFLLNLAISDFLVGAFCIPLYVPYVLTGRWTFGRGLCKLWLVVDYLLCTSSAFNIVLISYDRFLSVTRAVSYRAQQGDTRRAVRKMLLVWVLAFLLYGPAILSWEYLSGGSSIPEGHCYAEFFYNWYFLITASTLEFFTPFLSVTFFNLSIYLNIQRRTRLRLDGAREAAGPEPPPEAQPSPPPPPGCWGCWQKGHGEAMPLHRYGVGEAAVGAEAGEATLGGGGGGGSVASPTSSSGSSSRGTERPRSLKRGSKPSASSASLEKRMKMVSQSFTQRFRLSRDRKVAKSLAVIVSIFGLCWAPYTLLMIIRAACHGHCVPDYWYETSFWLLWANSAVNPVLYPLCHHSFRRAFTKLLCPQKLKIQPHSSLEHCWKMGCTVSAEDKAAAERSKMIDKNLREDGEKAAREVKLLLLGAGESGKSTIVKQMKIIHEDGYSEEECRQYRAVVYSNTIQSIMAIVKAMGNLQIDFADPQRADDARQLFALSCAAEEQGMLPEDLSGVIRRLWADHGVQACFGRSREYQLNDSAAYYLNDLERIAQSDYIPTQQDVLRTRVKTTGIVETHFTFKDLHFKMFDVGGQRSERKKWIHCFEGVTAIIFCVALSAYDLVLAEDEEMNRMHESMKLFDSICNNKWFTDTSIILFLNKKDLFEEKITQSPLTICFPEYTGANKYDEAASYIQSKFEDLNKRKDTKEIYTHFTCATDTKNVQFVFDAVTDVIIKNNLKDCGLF

Structure (SMILES): O=C(CN1CCC2(CC1)C(=O)N(c1ccccn1)c1ccccc12)N1CCN(C2CCC2)CC1 [Compound 424, 1′-[2-(4-cyclobutylpiperazin-1-yl)-2-oxoethyl]-1-pyridin-2-ylspiro[indole-3,4′-piperidin]-2(1H)-one]
Ki [2]: < 1 µM

Structure (SMILES): CC(=O)c1ccc(N2CCN(CC(=O)N3CCN(C4CCC4)CC3)CC2)cc1C(F)(F)F [Compound 461, 1-[4-{4-[2-(4-cyclobutylpiperazin-1-yl)-2-oxoethyl]piperazin-1-yl}-2-(trifluoromethyl)phenyl] ethanone]
Ki ("*" in Ki of Table II; assay of Example 7; read-out: Ki): < 1 µM

Structure (SMILES): CC(=O)c1ccc(N2CCN(CC(=O)N3CCN(C4CCC4)CC3C)CC2)cc1 (centres unmarked) [Compound 304, 1-(4-{4-[2-(4-cyclobutyl-2-methylpiperazin-1-yl)-2-oxoethyl]piperazin-1-yl}phenyl)ethanone]
Ki [2]: < 1 µM

Structure (SMILES): O=C(CN1CCN(c2ccc(-c3cc(C(F)(F)F)cc(C(F)(F)F)c3)nn2)CC1)N1CCN(C2CCC2)CC1 [Compound 998, 3-[3,5-bis(trifluoromethyl)phenyl]-6-{4-[2-(4-cyclobutylpiperazin-1-yl)-2-oxoethyl]piperazin-1-yl}pyridazine]
Ki [3]: < 1 µM

Structure (SMILES): O=C(CN1CCN(c2cccc(C(=O)N3CCCCC3)c2)CC1)N1CCN(C2CCC2)CC1 [Compound 585, 1-cyclobutyl-4-({4-[3-(piperidin-1-ylcarbonyl)phenyl]piperazin-1-yl}acetyl)piperazine]
Ki (Table II, "*" in Ki; assay of Example 7; read-out: Ki): < 1 µM

Structure (SMILES): CC(=O)c1ccc(N2CCN(CC(=O)N3CCN(C4CCCC4)CC3)CC2)nc1 [Compound 373, 1-(6-{4-[2-(4-cyclopentylpiperazin-1-yl)-2-oxoethyl]piperazin-1-yl}pyridin-3-yl)ethanone]
Ki [2]: < 1 µM

Structure (SMILES): O=C(CN1CCN(c2cnc(-c3ccc(F)cc3F)cn2)CC1)N1CCN(C2CCC2)CC1 [Compound 961, 2-{4-[2-(4-cyclobutylpiperazin-1-yl)-2-oxoethyl]piperazin-1-yl}-5-(2,4-difluorophenyl)pyrazine]
Ki [3]: < 1 µM

Structure (SMILES): CCCOc1ccc(-c2cnc(N3CCN(CC(=O)N4CCN(C5CCC5)CC4)CC3)cn2)cc1 [Compound 949, 2-{4-[2-(4-cyclobutylpiperazin-1-yl)-2-oxoethyl]piperazin-1-yl}-5-(4-propoxyphenyl)pyrazine]
Ki [3]: < 1 µM

The next lines start with the values.

Ki [1]: < 1 µM
Structure (SMILES): CCNC(=O)c1ccc(N2CCN(CC(=O)N3CCN(C4CCC4)CC3)CC2)nc1 [Compound 1174, 6-{4-[2-(4-cyclobutylpiperazin-1-yl)-2-oxoethyl]piperazin-1-yl}-N-ethylnicotinamide]

Ki [1]: < 1 µM
Structure (SMILES): CC(C)OC1=NCN(c2ccccc2)C12CCN(CC(=O)N1CCN(C3CCC3)CC1)CC2 [Compound 1192, 8-[2-(4-cyclobutylpiperazin-1-yl)-2-oxoethyl]-4-isopropoxy-1-phenyl-1,3,8-triazaspiro[4.5]dec-3-ene]

Ki [1]: < 1 µM
Structure (SMILES): CC(C)CCNC(=O)c1ccc(N2CCN(CC(=O)N3CCN(C4CCC4)CC3)CC2)nc1 [Compound 1179, 6-{4-[2-(4-cyclobutylpiperazin-1-yl)-2-oxoethyl]piperazin-1-yl}-N-(3-methylbutyl)nicotinamide]

Ki [3]: < 1 µM
Structure (SMILES): O=C(CN1CCN(c2ccc(C(=O)N3CCSCC3)cc2)CC1)N1CCN(C2CCC2)CC1 [Compound 1094, 4-(4-{4-[2-(4-cyclobutylpiperazin-1-yl)-2-oxoethyl]piperazin-1-yl}benzoyl) thiomorpholine]

Ki [3]: < 1 µM
Structure (SMILES): O=C(CN1CCN(c2ccc(-c3ccc(Cl)cc3Cl)nn2)CC1)N1CCN(C2CCC2)CC1 [Compound 1055, 3-{4-[2-(4-cyclobutylpiperazin-1-yl)-2-oxoethyl]piperazin-1-yl}-6-(2,4-dichlorophenyl)pyridazine]

Ki [3]: < 1 µM
Structure (SMILES): COc1cc(F)c(-c2ccc(N3CCN(CC(=O)N4CCN(C5CCC5)CC4)CC3)nn2)cc1F [Compound 1028, 3-{4-[2-(4-cyclobutylpiperazin-1-yl)-2-oxoethyl]piperazin-1-yl}-6-(2,5-difluoro-4-methoxyphenyl) pyridazine]

— patent US7851474B2, “Dipiperazinyl ketones and related analogues” (Neurogen Corporation, priority 2005, dated 2010)
